Laboratory results: patent US20110251379A1, “COMPOUNDS USEFUL FOR TREATING NEURODEGENERATIVE DISORDERS” (Satori Pharmaceuticals, Inc., priority 2010, published 2011)
Where two headings read alike, the source gives them in different places.

Assays:
Assay type in all cases: cell-based
Aβ-40 = test: MSD Human (6E10) Ab 3-PLEX elisa, conditioned media of 2B7 cells: Aβ-40; settings: for IC50: Aβ-40 (superscript b); for inhibition at 20 µM: Aβ-40, 20 μM
Summary of the method: (§1)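 Each Aβ peptide was measured by MSD 6E10 3-plex electrochemiluminescence against its own seven-point standard curve. Samples were conditioned media from 2B7 cells exposed to compound for 5 hours at 37° C with 1% DMSO. Percent-vehicle values were fitted to a 4-parameter curve to give IC50.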

Aβ-38 = test: MSD Human (6E10) Ab 3-PLEX elisa, conditioned media of 2B7 cells: Aβ-38; settings: for IC50: Aβ-38 (superscript a); for inhibition at 20 µM: Aβ-38, 20 μM
Summary of the method: as §1

Aβ-42 = test: MSD Human (6E10) Ab 3-PLEX elisa, conditioned media of 2B7 cells: Aβ-42; settings: for IC50: Aβ-42 (superscript c); for inhibition at 20 µM: Aβ-42, 20 μM
Summary of the method: as §1

[1] = Homo sapiens, read-out: 50% reduction value
[2] = Homo sapiens, read-out: IC50 range

Row | SMILES | IC50 (Aβ-40; [1]) | IC50 (Aβ-40; [2]) | IC50 (Aβ-38; [1]) | IC50 (Aβ-42; [1]) | IC50 (Aβ-42; [2]) | IC50 (Aβ-38; [2]) | further results
1 | CC(=O)OCC1CC(C)C2C(O1)C(O)C1(C)C3CCC4C(C)(C)C(OC(=O)c5cccnc5)CCC45CC35CCC21C (stereo not drawn) [drawing 1210] | – | – | – | – | – | – | IC50 (Aβ-40; read-out: 50% reduction value): 1000 to 10000 nM; IC50 (Aβ-40; read-out: IC50 range): > 10000 nM; IC50 (Aβ-38; read-out: 50% reduction value): 1000 to 10000 nM; IC50 (Aβ-42; read-out: 50% reduction value): 1000 to 10000 nM; IC50 (Aβ-42; read-out: IC50 range): 1000 to 10000 nM
2 | CCO[C@@H]([C@H]1C[C@@H](C)[C@H]2[C@H](O1)[C@H](O)[C@@]1(C)C3CC[C@H]4C(C)(C)C(OC(=O)NC5CNC5)CC[C@@]45C[C@@]35CC[C@]21C)C(C)(C)O (stereo partly drawn) | 1000 to 10000 nM | > 10000 nM | < 1000 nM | < 1000 nM | < 1000 nM | – | –
3 | CC(C)[C@@H](OC(N)=O)C1C[C@@H](C)[C@H]2C(O1)[C@H](O)[C@@]1(C)[C@@H]3CC[C@H]4C(C)(C)C(O[C@H]5CNCCO5)CC[C@@]45C[C@@]35CC[C@]21C (stereo partly drawn) | 1000 to 10000 nM | 1000 to 10000 nM | < 1000 nM | < 1000 nM | < 1000 nM | – | –
4 | CCO[C@@H]([C@H]1C[C@@H](C)[C@H]2[C@H](O1)[C@H](O)[C@@]1(C)C3CC[C@H]4C(C)(C)C(OC(=O)NC5COC5)CC[C@@]45C[C@@]35CC[C@]21C)C(C)(C)O (stereo partly drawn) | 1000 to 10000 nM | – | < 1000 nM | < 1000 nM | < 1000 nM | – | –
5 | CC(C)CO[C@@H](C1C[C@@H](C)[C@H]2C(O1)[C@H](O)[C@@]1(C)C3CC[C@H]4C(C)(C)C(O[C@H]5CN(C6COC6)CCO5)CC[C@@]45C[C@@]35CC[C@]21C)C(C)(C)O (stereo partly drawn) | 1000 to 10000 nM | 1000 to 10000 nM | < 1000 nM | 1000 to 10000 nM | – | < 1000 nM | –
6 | C[C@@H]1CC(CN(C)CC(=O)O)OC2[C@H]1[C@@]1(C)CC[C@@]34C[C@@]35CC[C@H](O[C@H]3CN(C(=O)CC6CC6)CCO3)C(C)(C)[C@@H]5CCC4[C@]1(C)[C@H]2O (stereo partly drawn) | – | > 10000 nM | – | – | > 10000 nM | > 10000 nM | –
7 | C[C@@H]1CC(CN2CCC[C@@H]2C(=O)O)OC2[C@H]1[C@@]1(C)CC[C@@]34C[C@@]35CC[C@H](O[C@H]3CN(C(=O)CC6CC6)CCO3)C(C)(C)[C@@H]5CCC4[C@]1(C)[C@H]2O (stereo partly drawn) | – | > 10000 nM | – | – | > 10000 nM | > 10000 nM | –
8 | CC(C)OC(C)(C)[C@H](O)C1C[C@@H](C)[C@H]2C(O1)[C@H](O)[C@@]1(C)C3CC[C@H]4C(C)(C)C(O)CC[C@@]45C[C@@]35CC[C@]21C (stereo partly drawn) | > 10000 nM | – | 1000 to 10000 nM | – | – | – | inhibition at 20 µM (Aβ-42; Homo sapiens): 25 to 75%
9 | COCC1C[C@@H](C)[C@H]2C(O1)[C@H](O)[C@@]1(C)[C@@H]3CC[C@H]4C(C)(C)C(O[C@H]5CN(C6COC6)CCO5)CC[C@@]45C[C@@]35CC[C@]21C (stereo partly drawn) | – | – | – | – | – | – | inhibition at 20 µM (Aβ-40; Homo sapiens): < 25%; inhibition at 20 µM (Aβ-38; Homo sapiens): < 25%; inhibition at 20 µM (Aβ-42; Homo sapiens): < 25%
10 | CC(C)C(=O)N1CCO[C@@H](O[C@H]2CC[C@]34C[C@]35CC[C@]3(C)C6C(OC(CN(C)C(N)=O)C[C@H]6C)[C@H](O)[C@@]3(C)C5CC[C@H]4C2(C)C)C1 (stereo partly drawn) | > 10000 nM | – | 1000 to 10000 nM | 1000 to 10000 nM | – | – | –
11 | CCS[C@@H](C1C[C@@H](C)C2C(O1)[C@H](O)[C@@]1(C)C3CC[C@H]4C(C)(C)C(O[C@H]5CN(C6COC6)CCO5)CC[C@@]45C[C@@]35CC[C@]21C)C(C)(C)O (stereo partly drawn) | > 10000 nM | – | 1000 to 10000 nM | – | – | – | inhibition at 20 µM (Aβ-42; Homo sapiens): 25 to 75%
12 | CNC(=O)OCC1C[C@@H](C)[C@H]2C(O1)[C@H](O)[C@@]1(C)C3CC[C@H]4C(C)(C)[C@@H](O)CC[C@@]45C[C@@]35CC[C@]21C (stereo partly drawn) | – | – | 1000 to 10000 nM | 1000 to 10000 nM | – | – | inhibition at 20 µM (Aβ-40; Homo sapiens): 25 to 75%; inhibition at 20 µM (Aβ-38; Homo sapiens): 25 to 75%
13 | CC(C)C(=O)OC(C1CC(C)C2C(O1)C(O)C1(C)C3CCC4C(C)(C)C(OC5CN(C6COC6)CCO5)CCC45CC35CCC21C)C(C)(C)O (stereo not drawn) [drawing 1220] | – | – | – | – | – | – | IC50 (Aβ-40; read-out: 50% reduction value): 1000 to 10000 nM; IC50 (Aβ-38; read-out: 50% reduction value): < 1000 nM; IC50 (Aβ-38; read-out: IC50 range): < 1000 nM; IC50 (Aβ-42; read-out: 50% reduction value): < 1000 nM
14 | CC(C)[C@@H](OC(=O)C1CCC1)C1C[C@@H](C)[C@H]2C(O1)[C@H](O)[C@@]1(C)[C@@H]3CC[C@H]4C(C)(C)C(O)CC[C@@]45C[C@@]35CC[C@]21C (stereo partly drawn) | 1000 to 10000 nM | – | < 1000 nM | < 1000 nM | – | 1000 to 10000 nM | –
15 | CC(C)C(=O)N1CCOC(OC2CC[C@]34C[C@]35CC[C@]3(C)[C@@H]6C(OC([C@H](OC(=O)N7CCC7)C(C)C)C[C@H]6C)[C@H](O)[C@@]3(C)C5CC[C@H]4C2(C)C)C1 (stereo partly drawn) | 1000 to 10000 nM | > 10000 nM | < 1000 nM | < 1000 nM | < 1000 nM | < 1000 nM | –
